This is an account of results in patent publication US20240238423A9, “TETRAHYDROISOQUINOLINE HETEROBIFUNCTIONAL BCL-XL DEGRADERS” (Treeline Biosciences, Inc., priority 2022, published 2024).

Read-outs that look alike come from different tables or passages of the source.

The target in this test is T1, Human BCL-XL protein (N-terminal HiBiT tagged BCL-XL in HT1080 cells) (Homo sapiens, UniProt Q07817).
T1 construct: expressed in transfected cells; host or cells: HT-1080 (ATCC CCL-121), stably transduced with lentivirus pLV-UBC-N-HiBiT-BCL-XL-PGK-puro and selected with puromycin
The test is described as follows: HiBiT based degradation assay. It counts as cell-based. Particulars: HT1080 cells expressing HiBiT-BCL-XL; for DC50: BCL-XL degradation. Summed up:
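HT1080 cells stably transduced by lentivirus with N-terminally HiBiT-tagged human BCL-XL and kept under 1 μg/mL puromycin selection were seeded at three thousand cells per well in 40 μL RPMI 1640 into 384-well plates pre-spotted with compounds across a concentration range. Luminescence was read on a PHERAstar FSX, normalized to DMSO, and fitted with a four-parameter logistic model.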

[1] abbreviates: BCL-XL degradation normalized with DMSO control, 24 h.

T1 sequence (Q07817 whole entry): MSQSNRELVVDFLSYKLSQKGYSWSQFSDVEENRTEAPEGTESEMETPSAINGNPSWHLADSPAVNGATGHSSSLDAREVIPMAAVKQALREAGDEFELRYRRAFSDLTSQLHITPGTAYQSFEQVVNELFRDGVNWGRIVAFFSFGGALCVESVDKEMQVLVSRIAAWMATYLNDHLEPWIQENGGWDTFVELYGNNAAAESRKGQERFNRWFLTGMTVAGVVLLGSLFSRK

In the case of `Cc1c(O[C@H]2CC[C@H](CCCCN3CCC[C@H](c4cccc5c(C6CCC(=O)NC6=O)nn(C)c45)C3)CC2)cccc1-c1ccc(N2CCc3cccc(C(=O)Nc4nc5ccccc5s4)c3C2)nc1C(=O)O` (single isomer, unassigned) [Compound 351a], the “Ymin (24 h)” value under setting [1] is “A (Ymin < 50%)”. Moreover, the DC50 (24 h, read-out: EC50 (24 h)) is below 100 nM.
Turning to `Cc1c(O[C@H]2CC[C@H](CCCCN3CCC(c4ccc5c(C6CCC(=O)NC6=O)nn(C)c5c4)CC3)CC2)cccc1-c1ccc(N2CCc3cccc(C(=O)Nc4nc5ccccc5s4)c3C2)nc1C(=O)O` (stereo partly shown) [Compound 299a, 6-(8-(benzo[d]thiazol-2-ylcarbamoyl)-3,4-dihydroisoquinolin-2(1H)-yl)-3-(3-(((1s,4r)-4-(4-(4-(3-(2,6-dioxopiperidin-3-yl)-1-methyl-1H-indazol-6-yl)piperidin-1-yl)butyl)cyclohexyl)oxy)-2-methylphenyl)picolinic acid], under setting [1], the “Ymin (24 h)” value is on record as “A (Ymin < 50%)”. Besides, for the setting “24 h, read-out: EC50 (24 h)”, the DC50 is below 100 nM.
For `Cc1c(OC[C@@H]2CCC3(CCN(CC(=O)Nc4ccc5c(C6CCC(=O)NC6=O)nn(C)c5c4)CC3)C2)cccc1-c1ccc(N2CCc3cccc(C(=O)Nc4nc5ccccc5s4)c3C2)nc1C(=O)O` (single isomer, unassigned) [Compound 262b], under setting [1], the “Ymin (24 h)” value is on record as “A (Ymin < 50%)”. Also, the DC50 (24 h, read-out: EC50 (24 h)) is below 100 nM.
Regarding `Cc1c(O[C@H]2CC[C@H](CCCN3CC[C@H](c4ccc5c(C6CCC(=O)NC6=O)nn(C)c5c4)C3)CC2)cccc1-c1ccc(N2CCc3cccc(C(=O)Nc4nc5ccccc5s4)c3C2)nc1C(=O)O` (single isomer, unassigned) [Compound 331a], the “Ymin (24 h)” value under setting [1] was “A (Ymin < 50%)”. The DC50 (24 h, read-out: EC50 (24 h)) is below 100 nM.
For `Cc1c(O[C@H]2CC[C@@H](CCCC3CCN(c4ccc5c(C6CCC(=O)NC6=O)nn(C)c5c4)CC3)CC2)cccc1-c1ccc(N2CCc3cccc(C(=O)Nc4nc5ccccc5s4)c3C2)nc1C(=O)O` (stereo partly shown) [Compound 311a, 6-(8-(benzo[d]thiazol-2-ylcarbamoyl)-3,4-dihydroisoquinolin-2(1H)-yl)-3-(3-(((1r,4s)-4-(3-(1-(3-(2,6-dioxopiperidin-3-yl)-1-methyl-1H-indazol-6-yl)piperidin-4-yl)propyl)cyclohexyl)oxy)-2-methylphenyl) picolinic acid] the same measures were “B (50% ≤ Ymin < 70%)” and below 100 nM.
For the compound `Cc1c(OCC(F)(F)CN2C[C@@H](C)N(CC(=O)Nc3cccc4c(C5CCC(=O)NC5=O)nn(C)c34)[C@@H](C)C2)cccc1-c1ccc(N2CCc3cccc(C(=O)Nc4nc5ccccc5s4)c3C2)nc1C(=O)O` (stereo partly drawn) [Compound 209a, 6-[8-(1,3-benzothiazol-2-ylcarbamoyl)-3,4-dihydro-1H-isoquinolin-2-yl]-3-[3-[3-[(3R,5S)-4-[2-[[3-(2,6-dioxo-3-piperidyl)-1-methyl-indazol-7-yl]amino]-2-oxo-ethyl]-3,5-dimethyl-piperazin-1-yl]-2,2-difluoro-propoxy]-2-methyl-phenyl]pyridine-2-carboxylic acid], under setting [1], the “Ymin (24 h)” value was “B (50% ≤ Ymin < 70%)”. Further, the DC50 (24 h, read-out: EC50 (24 h)) fell in the range of 100 to 1000 nM.
For `Cc1c(Oc2ccc(CCCC(=O)N3CCN(c4cccc5c(C6CCC(=O)NC6=O)nn(C)c45)CC3)cc2)cccc1-c1ccc(N2CCc3cccc(C(=O)Nc4nc5ccccc5s4)c3C2)nc1C(=O)O` (stereo not shown) [Compound 191, 6-(8-(benzo[d]thiazol-2-ylcarbamoyl)-3,4-dihydroisoquinolin-2(1H)-yl)-3-(3-(4-(4-(4-(3-(2,6-dioxopiperidin-3-yl)-1-methyl-1H-indazol-7-yl)piperazin-1-yl)-4-oxobutyl)phenoxy)-2-methylphenyl)picolinic acid], under setting [1], the “Ymin (24 h)” value is recorded as “B (50% ≤ Ymin < 70%)”. Moreover, the DC50 (24 h, read-out: EC50 (24 h)) is below 100 nM.
Take `Cc1c(O[C@H]2CC[C@H](CC[C@H](C)N3CCN(c4cccc5c(C6CCC(=O)NC6=O)nn(C)c45)CC3)CC2)cccc1-c1ccc(N2CCc3cccc(C(=O)Nc4nc5ccccc5s4)c3C2)nc1C(=O)O` (single isomer, unassigned) [Compound 283a]: under setting [1], the “Ymin (24 h)” value is “A (Ymin < 50%)”. For the same compound, under “24 h, read-out: EC50 (24 h)”, the DC50 was below 100 nM.
For the compound `Cc1c(O[C@H]2CC[C@H](CCCCN3CCN(c4ccc5c(C6CCC(=O)NC6=O)nn(C)c5c4)C[C@@H]3C(F)(F)F)CC2)cccc1-c1ccc(N2CCc3cccc(C(=O)Nc4nc5ccccc5s4)c3C2)nc1C(=O)O` (stereo partly drawn) [Compound 346a, 6-(8-(benzo[d]thiazol-2-ylcarbamoyl)-3,4-dihydroisoquinolin-2(1H)-yl)-3-(3-(((1s,4r)-4-(4-((2R)-4-(3-(2,6-dioxopiperidin-3-yl)-1-methyl-1H-indazol-6-yl)-2-(trifluoromethyl)piperazin-1-yl)butyl)cyclohexyl)oxy)-2-methylphenyl)picolinic acid], under setting [1], the “Ymin (24 h)” value is “A (Ymin < 50%)”. Also, the DC50 (24 h, read-out: EC50 (24 h)) was below 100 nM.
On the same counts, the results for `Cc1c(OCCCCC2CCN(CC3CCN(c4cccc5c(C6CCC(=O)NC6=O)nn(C)c45)CC3)CC2)cccc1-c1ccc(N2CCc3cccc(C(=O)Nc4nc5ccccc5s4)c3C2)nc1C(=O)O` (stereo not shown) [Compound 285, 6-[8-(1,3-benzothiazol-2-ylcarbamoyl)-3,4-dihydro-1H-isoquinolin-2-yl]-3-[3-[4-[1-[[1-[3-(2,6-dioxo-3-piperidyl)-1-methyl-indazol-7-yl]-4-piperidyl]methyl]-4-piperidyl]butoxy]-2-methyl-phenyl]pyridine-2-carboxylic acid] are “A (Ymin < 50%)” and below 100 nM.
In the case of `Cc1c(O[C@H]2CC[C@H](CCCC(C)(C)N3CCN(c4ccc5c(C6CCC(=O)NC6=O)nn(C)c5c4)CC3)CC2)cccc1-c1ccc(N2CCc3cccc(C(=O)Nc4nc5ccccc5s4)c3C2)nc1C(=O)O` (stereo partly shown) [Compound 350a, 6-(8-(benzo[d]thiazol-2-ylcarbamoyl)-3,4-dihydroisoquinolin-2(1H)-yl)-3-(3-(((1s,4r)-4-(4-(4-(3-(2,6-dioxopiperidin-3-yl)-1-methyl-1H-indazol-6-yl)piperazin-1-yl)-4-methylpentyl)cyclohexyl)oxy)-2-methylphenyl)picolinic acid], the “Ymin (24 h)” value under setting [1] was “A (Ymin < 50%)”. The DC50 (24 h, read-out: EC50 (24 h)) is below 100 nM.
For `Cc1c(OCCO[C@@H]2C[C@H]3CC[C@@H](C2)N3CC(=O)Nc2cccc3c(C4CCC(=O)NC4=O)nn(C)c23)cccc1-c1ccc(N2CCc3cccc(C(=O)Nc4nc5ccccc5s4)c3C2)nc1C(=O)O` (stereo partly drawn) [Compound 224a, 6-(8-(benzo[d]thiazol-2-ylcarbamoyl)-3,4-dihydroisoquinolin-2(1H)-yl)-3-(3-(2-(((1R,3s,5S)-8-(2-((3-(2,6-dioxopiperidin-3-yl)-1-methyl-1H-indazol-7-yl)amino)-2-oxoethyl)-8-azabicyclo[3.2.1]octan-3-yl)oxy)ethoxy)-2-methylphenyl)picolinic acid], the “Ymin (6 h)” value (BCL-XL degradation normalized with DMSO control, 6 h) is “C (Ymin ≥ 70%)”. Also, the “Ymin (24 h)” value under setting [1] is given as “B (50% ≤ Ymin < 70%)”. The DC50 reads like this: (6 h, read-out: EC50 (6 h)) 1000 to 10000 nM; (24 h, read-out: EC50 (24 h)) below 100 nM.
Regarding `Cc1c(OCCCN2CCN(CC3CCC4(CC3)CN(c3cccc5c(C6CCC(=O)NC6=O)nn(C)c35)C4)CC2)cccc1-c1ccc(N2CCc3cccc(C(=O)Nc4nc5ccccc5s4)c3C2)nc1C(=O)O` (stereo not shown) [Compound 260, 6-(8-(benzo[d]thiazol-2-ylcarbamoyl)-3,4-dihydroisoquinolin-2(1H)-yl)-3-(3-(3-(4-((2-(3-(2,6-dioxopiperidin-3-yl)-1-methyl-1H-indazol-7-yl)-2-azaspiro[3.5]nonan-7-yl)methyl)piperazin-1-yl)propoxy)-2-methylphenyl)picolinic acid], the “Ymin (24 h)” value under setting [1] is “A (Ymin < 50%)”. The DC50 (24 h, read-out: EC50 (24 h)) was below 100 nM.
